Reference: publication PMC12414871, “Unraveling the functional dynamics of Caenorhabditis elegans stress‐responsive omega class GST‐44” (The Febs Journal, 2025)

Molecular target: T1, GST‐44 (Caenorhabditis elegans, UniProt O45352)
T1 construct: recombinant, E. coli BL21(DE3), vector pJC40 with removable N-terminal His tag, Ni-NTA purified
Experiment: thioltransferase assay, substrate saturation curve and Lineweaver-Burk diagram
Format: biochemical
Details: co-substrate GSH (thioltransferase assay; reduction of spontaneously formed mixed disulfide)

T1 sequence (O45352 entry or part of it): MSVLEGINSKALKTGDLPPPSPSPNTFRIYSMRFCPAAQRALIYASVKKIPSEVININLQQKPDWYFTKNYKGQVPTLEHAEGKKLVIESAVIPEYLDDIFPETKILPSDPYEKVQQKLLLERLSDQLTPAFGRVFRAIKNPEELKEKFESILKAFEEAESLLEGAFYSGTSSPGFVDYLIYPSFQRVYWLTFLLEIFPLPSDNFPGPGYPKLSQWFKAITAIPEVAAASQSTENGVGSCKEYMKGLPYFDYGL

Compound: OCCSSCCO [2‐hydroxyethyl disulfide]
- Km: 160 µM
